# Patent US20120251528A1, “Non-Human Mammal Model Of Human Hematopoietic Cancer” (priority 2009, published 2012)
# “Also recorded” adds a separate entry of the source.
# What was measured:
# GFP+ leukemic cells = experiment: Combinatorial treatment of Alemtuzumab and cyclophosphamide in secondary GFP/myc/bcl mice: GFP+ cells per organ; format: in vivo, mouse; conditions: 9 days after beginning of treatment; for effect on the leukemia in the bone marrow: single treatment
# Procedure: Absolute number of GFP+leukemic cells per organ was assessed by FACS and absolute count calculation.
# Cohorts of secondary recipients were generated and divided into treatment groups as described above.
# ALL-cells = experiment: Direct cytotoxic effects on ALL-cells in vitro; format: cell-based, human
# Description: (§1) Antibody-bound leukemic cells can also be killed by complement-mediated lysis.
# leukemic cells = experiment: Alemtuzumab treatment of macrophage-depleted (clodronate liposomes) tumor-bearing mice; format: in vivo, mouse; conditions: treated 2 days after injection of clodronate liposomes
# GFP/myc/bcl cells [1] = experiment: Complement-dependent cytotoxicity (CDC) in vitro, Annexin-V-PE/7-AAD flow cytometry; format: cell-based, human; conditions: 1-100 μg/ml, 48 h
# Procedure: Media were supplemented with human, murine BL6- as NSG-derived serum. Serum-free media and heat-inactivated serum served as control. Cell viability was assessed by Annexin-V-PE/7-AAD flow cytometry after 48 h.
# as §1
# GFP/myc/bcl cells [2] = experiment: Cumulative survival of secondary GFP/myc/bcl mice, Alemtuzumab vs control; format: in vivo, mouse; conditions: Log-rank test; FIG. 4C
# Procedure: (§3) Each mouse in a cohort of secondary mice was injected with ˜10^6 GFP+ cells from the same primary donor mouse. 18-20 days later, mice were divided into 2 groups, and stratified for the density of GFP+ cells found in their peripheral blood (i.e. having the same (or similar) number of GFP+ cells/uL of blood).
# (§4) Two days after completing the course of treatment, several mice were euthanized and the number of GFP+ cells in various organs was determined.
# GMB cells = experiment: Antibody-dependent cellular cytotoxicity with thioglycollate induced macrophages from NSG mice in vitro; format: cell-based, human; conditions: for macrophage-mediated killing / lysis of leukemia cells: induced peritoneal NSG macrophages
# Description: as §1
# GFP/myc/bcl cells [3] = conditions: 5 mg/kg i.v. days 1, 4, 7, two days after completing treatment
# Procedure: Mice were treated 14 days after transplantation while showing leukemic phenotype. […] Response to treatment was assessed after 7 days, a leukemic burden was measured by flow cytometry and calculating absolute cell count per organ.
# as §3, §4
# GFP+ leukemia cells = experiment: In vivo binding of GFP/myc/bcl cells by labeled Alemtuzumab, flow cytometry of homogenized organs; design: species or system mouse; conditions: 5 mg/kg, 24 h
# Procedure: Organs were homogenized and antibody binding to cells detected by flow cytometry.
# (§2) Mice were sacrificed after 24 h and imaged at an IVIS fluorometer. […] Organs were homogenized and cells from these organs were directly assessed for Alemtuzumab-AlexaFluor750 binding by flow cytometry.
# [4] = Alemtuzumab distribution in vivo, IVIS fluorometry; design: species or system mouse; conditions: 24 h; for tissue distribution of fluorescent signal (spleen, liver, bones): 5 mg/kg i.v.
# Procedure: High signal in dissected whole brain.
# as §2
# GFP/myc/bcl cells [5] = experiment: F(ab)2 fragments of Alemtuzumab injected to secondary GFP/myc/bcl mice (Fc-dependent effects); format: in vivo, mouse; conditions: injected day 14 after transplantation, vs Alemtuzumab control
# Description: as §1
# [6] = listed as Alemtuzumab-AlexaFluor750
compound,measurement,setting,value
O=P1(N(CCCl)CCCl)NCCCO1 (stereo not drawn) [cyclophosphamide],reduction of GFP+ cells found in the brain,GFP+ leukemic cells; 150 mg/kg i.p. days 1 and 2,~300 fold
same,reduction of GFP+ cells in the peripheral blood,GFP+ leukemic cells; single agent,as effectively as the treatment using Alemtuzumab alone
same,effect on the leukemia in the bone marrow,GFP+ leukemic cells,neither single treatment had much effect
Alemtuzumab,direct cytotoxic effects on ALL-cells,ALL-cells,no direct cytotoxic effects
same,reduction of leukemic cells in the spleen of macrophage-depleted mice,leukemic cells,no reduction of leukemic cells in the spleen
same,"complement-dependent cytotoxicity, human serum",GFP/myc/bcl cells [1]; media with human serum,detected in human serum
same,"complement-dependent cytotoxicity, murine sera",GFP/myc/bcl cells [1]; media with murine BL6- or NSG-derived serum,did not mediate Alemtuzumab mediated tumor cell killing; also recorded: not in murine sera
same,survival vs PBS-treated control,GFP/myc/bcl cells [2],survived significantly longer; also recorded: significant prolonged survival
same,time within which macrophages killed GMB cells,GMB cells; NSG macrophages in the presence of antibody,≤ 13 h
same,macrophage-mediated killing / lysis of leukemia cells,GMB cells,capable of ALL-cell lysis
same,effect on GFP+ cells in the brain,GFP+ leukemic cells; single agent,no effect
same,effect on the leukemia in the bone marrow,GFP+ leukemic cells,neither single treatment had much effect
same,number of GFP+ cells in bone marrow vs control mice,GFP/myc/bcl cells [3]; bone marrow,approximately the same
same,number of GFP+ cells in brain vs control mice,GFP/myc/bcl cells [3]; brain,approximately the same
same,decrease of GFP+ cells in liver vs PBS,GFP/myc/bcl cells [3]; liver,~400 fold
same,decrease of GFP+ cells in peripheral blood vs PBS,GFP/myc/bcl cells [3]; peripheral blood,~30 fold
same,decrease of GFP+ cells in spleen vs PBS,GFP/myc/bcl cells [3]; spleen,~3300 fold
AlexaFluor750 labeled Alemtuzumab: Alemtuzumab labeled with AlexaFluor 750,"antibody binding to GFP+ leukemia cells, bone marrow",GFP+ leukemia cells,increased AlexaFLuor750 signal
same,"antibody binding to GFP+ leukemia cells, spleen",GFP+ leukemia cells,increased AlexaFLuor750 signal
same,antibody binding to brain-derived leukemia cells,GFP+ leukemia cells,no detection could be detected
same,"antibody binding to GFP+ leukemia cells, bone marrow",GFP+ leukemia cells; [6],Strong antibody binding
same,"antibody binding to GFP+ leukemia cells, spleen",GFP+ leukemia cells; [6],Strong antibody binding
same,antibody binding to brain-derived leukemia cells,GFP+ leukemia cells; [6],no specific binding
same,"tissue distribution of fluorescent signal (spleen, liver, bones)",[4],"Intense staining of spleen, liver and bones"
same,"tissue distribution of fluorescent signal (spleen, liver, bones)",[4]; listed as Labeled Alemtuzumab,focused on spleen and bones
same,fluorescent signal in dissected whole brain,[4]; i.v.,High signal
F(ab)2 fragments of Alemtuzumab: pepsin-digested F(ab)2-fragments of Alemtuzumab lacking the Fc part,macrophage-mediated killing / lysis of leukemia cells,GMB cells,no effect
same,macrophage-mediated killing / lysis of leukemia cells,GMB cells; listed as F(ab)2 fragments,No GFP/myc/bcl-directed killing
same,therapeutic effect in secondary GFP/myc/bcl mice,GFP/myc/bcl cells [5],no therapeutic effects
same,therapeutic effect in secondary GFP/myc/bcl mice,GFP/myc/bcl cells [5]; listed as F(ab)2-fragments of Alemtuzumab,no therapeutic effect
